Assay results: ChEMBL document CHEMBL5233248, “Resveratrol - A comprehensive review of recent advances in anticancer drug design and development” (Eur J Med Chem, 2020)
Several values for one entry are separate records, joined by “and”; a condition that tells them apart may be missing. Equal entries are not always repeated. Each block holds one compound with its values, some of them ahead of it.

How the values were obtained:
PANC-1 = experiment: Anticancer activity against human PANC-1 cells assessed as cell growth inhibition incubated for 48 hrs by SRB assay; format: functional; conditions: Homo sapiens, PANC-1, 48 h
B16-F10 [1] = experiment: Anti cancer activity against mouse B16-F10 cells assessed as cell growth inhibition incubated for 40 hrs by Almar Blue stained fluorescence-based assay relative to control; format: functional
B16-F10 [2] = experiment: Anti cancer activity against mouse B16-F10 cells assessed as cell growth inhibition incubated for 40 hrs by Almar Blue stained fluorescence-based assay; format: functional; conditions: B16-F10, 40 h
MDA-MB-231 = experiment: Anticancer activity against human MDA-MB-231 cells assessed as reduction in cell viability measured after 48 hrs at 150 uM by MTT assay relative to control; format: functional
[3] = Anticancer activity against human AZ-AHR cells assessed as cell growth inhibition incubate for 24 hrs by MTT assay; format: functional, cell-based
MCF7 [4] = experiment: Anticancer activity against human MCF7 cells assessed as cell growth inhibition incubated for 3 days by MTT assay; format: functional, cell-based; conditions: MCF7, 72 h
HT-29 = experiment: Anticancer activity against human HT-29 cells assessed as cell growth inhibition incubated for 3 days by MTT assay; format: functional, cell-based; conditions: HT-29, 72 h
HEK293 = experiment: Anticancer activity against human HEK293 cells assessed as cell growth inhibition incubated for 3 days by MTT assay; format: functional, cell-based; conditions: HEK293, 72 h
HCT-116 [5] = experiment: Anticancer activity against human HCT-116 cells assessed as cell growth inhibition; format: functional, cell-based
ASPC1 = experiment: Anticancer activity against human ASPC1 cells assessed as cell growth inhibition incubated for 72 hrs by MTT assay; format: functional, cell-based; conditions: ASPC1, 72 h
BXPC-3 = experiment: Anticancer activity against human BXPC-3 cells assessed as cell growth inhibition incubated for 72 hrs by MTT assay; format: functional, cell-based; conditions: BXPC-3, 72 h
Capan-2 = experiment: Anticancer activity against human Capan-2 cells assessed as cell growth inhibition incubated for 72 hrs by MTT assay; format: functional, cell-based; conditions: Capan-2, 72 h
HCT-116 [6] = experiment: Anticancer activity against human HCT-116 cells assessed as cell growth inhibition incubated for 5 days by SRB assay; format: functional, cell-based; conditions: HCT-116, 120 h
HeLa = experiment: Anticancer activity against human HeLa cells assessed as cell growth inhibition measured after 72 hrs by MTT assay; format: functional, cell-based
A549 = experiment: Anticancer activity against human A549 cells assessed as cell growth inhibition measured after 72 hrs by MTT assay; format: functional, cell-based
[7] = Anticancer activity against Lung adenocarcinoma cell line assessed as cell growth inhibition measured after 72 hrs by MTT assay; format: functional, cell-based; conditions: Lung adenocarcinoma cell line, 72 h
[8] = Cytotoxicity activity against human CCD-1059Sk cells assessed as cell growth inhibition incubated for 48 hrs by MTS assay; format: toxicity, cell-based
in vitro = conditions: human, CCD-1059Sk cells and MCF7 cells
Description: Selectivity index, ratio of IC50 for cytotoxicity against CCD-1059Sk cells to IC50 for antiproliferative activity against MCF7 cells

MCF7 [9] = experiment: Anticancer activity against human MCF7 cells assessed as cell growth inhibition incubated for 48 hrs by MTS assay; format: functional, cell-based; conditions: MCF7, 48 h
[10] = Homo sapiens, HeLa, 72 h, read-out: IC50

GI50 (PANC-1): 0.064 µM
SMILES: COc1cc(/C=C/c2ccc(OC(=O)CSc3nnc(-c4ccccc4F)o3)cc2)cc(OC)c1

GI50 (PANC-1): 0.064 µM
SMILES: COc1cc(/C=C/c2ccc(NC(=O)CSc3nnc(-c4ccc(C)cc4)o3)cc2)cc(OC)c1

IC50 (ASPC1): 3.23 µM
IC50 (BXPC-3): 22.5 µM
SMILES: Nc1ccc(/C=C/c2ccc(O)cc2)cc1
IC50 (Capan-2): 3.03 µM

GI50 (PANC-1): 0.064 µM
SMILES: COc1cc(/C=C/c2ccc(OC(=O)CSc3nnc(-c4ccncc4)o3)cc2)cc(OC)c1

IC50 (HeLa; [10]): 8.25 µM
IC50 (A549; Homo sapiens, A549, 72 h): 26.3 µM
SMILES: Oc1cc(O)cc(/C=C/c2ccc(OCc3ccccc3)cc2)c1
IC50 [7]: 9.43 µM

IC50 (B16-F10 [2]): 1 µM
SMILES: COc1ccc(/C=C/c2ccc(OC)c(OC)c2)cc1

IC50 (MCF7 [9]): 129 µM
SMILES: COc1cc(/C=C/C(=O)N/N=C/c2ccc(O)c(OC)c2)ccc1O
IC50 at 48 h [8]: 74.6 µM
selectivity ratio (in vitro): 1.73

IC50 (MCF7 [9]): 19.1 µM
SMILES: COc1ccc(/C=N/NC(=O)/C=C/c2ccc(O)c(OC)c2)cc1
IC50 at 48 h [8]: 158 µM
selectivity ratio (in vitro): 3.9

IC50 (MCF7 [9]): 43 µM
SMILES: COc1cc(/C=N/NC(=O)/C=C/c2ccc(O)c(OC)c2)cc(OC)c1
IC50 at 48 h [8]: 130 µM
selectivity ratio (in vitro): 6.81

The remaining lines, values behind:

SMILES: COc1cc(/C=C/c2ccc(OC(=O)CSc3nnc(-c4cnccn4)o3)cc2)cc(OC)c1
GI50 (PANC-1): 0.064 µM

SMILES: COc1cc(/C=C\c2ccc(OC)c(OC)c2)cc(OC)c1 [(Z)-3,4,3',5'-TETRAMETHOXYSTILBENE]
inhibition (INH) (B16-F10 [1]): 80%
IC50 (B16-F10 [2]): 1 µM

SMILES: COc1cc(/C=C/c2ccc(OC(=O)CSc3nnc(-c4ccc(F)cc4)o3)cc2)cc(OC)c1
GI50 (PANC-1): 0.064 µM

SMILES: CCCC(=O)Oc1ccc(/C=C/c2cc(O)cc(O)c2)cc1
Activity (MDA-MB-231): 14.14%

SMILES: Oc1cc(O)cc(/C=C\c2ccc(O)c(O)c2)c1
IC50 [3]: 7.8 µM

SMILES: COc1ccc(/C=C\c2cc(OC)c(OC)c(OC)c2)cc1
inhibition (INH) (B16-F10 [1]): 80%
IC50 (B16-F10 [2]): 1 µM

SMILES: OC[C@H]1O[C@@H](Oc2cc(O)cc(/C=C/c3ccc(O)cc3)c2)[C@H](O)[C@@H](O)[C@@H]1O [PICEID]
IC50 (MCF7 [4]): 38 µM
IC50 (HT-29): 18 µM
IC50 (HEK293): > 100 µM

SMILES: Oc1cc(O)cc(/C=C/c2ccc(O)c(O)c2)c1 [PICEATANNOL]
IC50 (HCT-116 [5]): 5 µM
IC50 [3]: 4.5 µM

SMILES: COc1cc(/C=C/c2ccc(O[C@@H]3O[C@H](CO)[C@@H](O)[C@H](O)[C@H]3O)cc2)cc(O[C@@H]2O[C@H](CO)[C@@H](O)[C@H](O)[C@H]2O)c1
IC50 (MCF7 [4]): 78 µM
IC50 (HT-29): 45 µM
IC50 (HEK293): > 100 µM

SMILES: Oc1ccccc1/C=N/c1ccccc1O
IC50 (HCT-116 [6]): 0.6 µM

SMILES: CCCCCCCC(=O)OC[C@H]1O[C@@H](Oc2cc(O)cc(/C=C/c3ccc(O)cc3)c2)[C@H](O)[C@@H](O)[C@@H]1O
IC50 (MCF7 [4]): 52 µM
IC50 (HT-29): 39 µM
IC50 (HEK293): > 100 µM

SMILES: O=S(=O)(Oc1ccc(/C=C/c2cc(O)cc(OS(=O)(=O)c3ccccc3)c2)cc1)c1ccccc1
IC50 (HeLa; [10]): 6.48 µM
IC50 (A549; Homo sapiens, A549, 72 h): 4.9 µM
IC50 [7]: 5.55 µM

SMILES: CC(=O)Oc1ccc(/C=C/c2cc(OC(C)=O)cc(OC(C)=O)c2)cc1 [TRIACETYLRESVERATROL]
IC50 (HeLa; [10]): 3.4 µM
IC50 (HeLa; time 72 hrs): 20.14 µM
IC50 (A549; a549): 3.4 µM and 9.43 µM
IC50 [7]: 3.4 µM

SMILES: COc1cc(/C=C/c2ccc(OC(=O)CSc3nnc(-c4cc(OC)c(OC)c(OC)c4)o3)cc2)cc(OC)c1
GI50 (PANC-1): 0.064 µM

SMILES: COc1cc(/C=C/c2ccc(OC(=O)CSc3nnc(-c4ccc(C(F)(F)F)cc4)o3)cc2)cc(OC)c1
GI50 (PANC-1): 0.064 µM

SMILES: COc1ccc(/C=C/c2cc(OC)c(OC)c(OC)c2)cc1
IC50 (HCT-116 [5]): 1.1 µM
